Source: PMC6017830, “Furan- and Thiophene-2-Carbonyl Amino Acid Derivatives Activate Hypoxia-Inducible Factor via Inhibition of Factor Inhibiting Hypoxia-Inducible Factor-1” (Molecules : A Journal of Synthetic Chemistry and Natural …, 2018)
pIC50: −log10 of the molar value. “Also recorded” adds a separate entry of the source.

Experiments:
[1] = tested on: HIF-HRE transcriptional activity in SKN:HRE-MLuc cells (reflects FIH-1 inhibition); assay: HIF activity under hypoxia, HRE-MLuc luciferase reporter assay; assay type: cell-based, human; conditions: for activation at 100 µM / minimal effective concentration: Homo sapiens, SKN:HRE-MLuc cells, 3% O2, 24 h; for activation at 100 µM: read-out: 100 μM Activity (RLU intensity at 100 μM stimulation compared with the positive control DMOG); for minimal effective concentration: doses 100, 25, 6.3, 1.6 μM, DMOG 100 μM as positive control, read-out: 25% Activity (lower dose limit showing 25% of the RLU intensity of the positive control DMOG); for HIF activity (HRE-MLuc reporter), result in words: hypoxic conditions (3% O2), 24 h, reference compounds at 100 μM
Procedure: To evaluate HIF transactivation following FIH-1 inhibition […], we employed a luciferase reporter assay system in the human neuroblastoma cell line SK-N-BE(2)c. […] Hereafter these HRE reporter cells were designated SKN:HRE-MLuc cells.
SKN:HRE-MLuc (4 × 10^4) were incubated for 24 h on a 96 well culture plate. The medium was replaced with complete media and the test compounds (100, 25, 6.3 and 1.6 μM). DMSO (0.1%) was used as a vehicle control, DMOG (100 μM) and FG4592 (100 μM) were used as a PHDs or FIH-1 inhibitor. The cells were incubated for 24 h under a humidified atmosphere of 5% CO2 and 3% O2 at 37 °C. After incubation, the MLuc activity in culture media was measured with luciferase substrate (Takara, Shiga, Japan) by LB960 luminometer (Berthold, Wildbad, Germany). The HIF activity was calculated as the MLuc intensity, based on the vehicle and positive controls. The lower limit dose out of 100 μM, 25 μM, 6.3 μM, 1.6 μM was listed in Table 1 and Table 2, where 25% RLU intensity was measured using DMOG as a positive control.

SKN:HRE-MLuc cells = assay: MTS assay (cellular toxicity); assay type: cell-based, human; conditions: for pIC50: Homo sapiens, MTS assay
Excerpt: Next, we evaluated the activation of HIF by furan- and thiophene-2-carbonyl amino acid derivatives using the evaluation methods described above. Simultaneously, we investigated cellular toxicity for those derivatives with a 3-(4,5-dimethylthiazol-2-yl)-5-(3-carboxymethoxyphenyl)-2-(4-sulfophenyl)-2H-tetrazolium (MTS) assay. To indicate cellular membrane permeability, the partition coefficients, which are frequently represented by calculated logP (clogP) are listed in Table 1 and Table 2.
Cellular toxicity was measured using the CellTiter 96® Aqueous One Solution Cell Proliferation Assay kit (Promega, Madison, WI, USA). The cells were stimulated with each compound and treated with the CellTiter solution. After incubation for 3 h, the absorbance of the solutions at 492 nm was measured by Multiskan FC (Thermo Fisher Scientific, Waltham, MS, USA). As a negative control, wells with culture media were used. Wells treated with DMSO (0.1%) were used as a positive control. The IC50 values were determined using these controls.

[2] = tested on: HIF-HRE transcriptional activity in SKN:HRE-MLuc cells (PHD inhibition); assay: HIF activity under normoxia, HRE-MLuc luciferase reporter assay; assay type: cell-based, human; conditions: normoxic conditions, 100 μM, 24 h
Excerpt: We next measured HIF transactivity of FIH-1 inhibitors under normoxic conditions to confirm whether these inhibitors stabilized HIF via inhibiting PHD. Under normoxic conditions, inhibition of PHD dramatically activated HRE reporter. In contrast, when PHD was inhibited under hypoxic conditions, the rate of activation of the HRE reporter was low because hypoxia already partially activated the HRE reporter. The compounds showing HIF activation under hypoxic conditions (compounds 7, 9–11, 15–18, 28, 30, and 38) were evaluated by the luciferase assays in SKN:HRE-MLuc cells under normoxic conditions (Figure 6).
SKN:HRE-MLuc (4 × 10^4) were incubated for 24 h on a 96 well culture plate. The medium was replaced with complete media and the tested compounds (100 μM). DMSO (0.1%) was used as a negative control, and DMOG (100 μM) was used as a positive control. The cells were incubated for 24 h under a humidified atmosphere of 5% CO2 at 37 °C. After incubation, the MLuc activity in culture media was measured with the method descried above.

[3] = tested on: HIF-1α mRNA in SK-N-BE(2)c cells; assay: Quantitative RT-PCR of HIF-1α mRNA; assay type: cell-based, human; conditions: 100 μM, 3% O2, SK-N-BE(2)c cells
Procedure: (§1) To confirm transactivation of HIF by our optimized compounds, the expression of HIF target genes was analyzed with quantitative polymerase chain reaction (PCR) in SK-N-BE(2)c cells. We attempted to analyze several HIF target genes including CA9, VEGF-α, EPO, and PHD3, under 3% O2 conditions.
(§2) Total RNA was extracted from cells using ISOGEN (Nippon Gene, Tokyo, Japan). cDNA syntheses were performed using random hexamer primers and SuperScript II Reverse Transcriptase (Thermo Fisher Scientific) following the manufacturer’s instructions. Quantitative reverse transcription polymerase-chain reaction (RT-PCR) analysis was performed as follows: amplification was done in an initial denaturing step at 96 °C for 2 min, followed by 35 cycles of PCR (96 °C for 1 min, 57 °C for 30 s, 72 °C for 30 s) using recombinant Taq polymerase (Takara, Otsu, Japan) with the respective primer pairs. For human carbonic anhydrase IX (CA9), 5′-CCTGGCTGCTGGTGACATCC-3′ and 5′-AAGGAAGTGGCATAATGAGC-3′. […] Data were analyzed using the comparative Ct method as means of relative quantification, and were normalized to an endogenous reference (β-actin) and relative to a calibrator (normalized Ct value obtained from cells treated with vehicle only). Data were expressed as 2^−ΔΔCt.

[4] = tested on: CA9 mRNA in SK-N-BE(2)c cells; assay: Quantitative RT-PCR of HIF target gene CA9; assay type: cell-based, human; conditions: 100 μM, 3% O2, SK-N-BE(2)c cells
Procedure: as §1, §2

[5] = tested on: HIF-HRE transcriptional activity in SKN:HRE-MLuc cells (reflects FIH-1 inhibition); assay: HIF activity under hypoxia, HRE-MLuc luciferase reporter assay; assay type: cell-based, human; conditions: 100 μM; normoxic or hypoxic (3% O2), control or FIH-1 siRNA transfectants, Figure 3c (A vs E, F, G, H)

With `COC(=O)[C@H](Cc1ccccc1)NC(=O)c1ccc(C)o1` [Compound 7, (S)-Methyl (5-methylfuran-2-carbonyl)phenylalaninate] the activation at 100 µM [1] was 22%, the minimal effective concentration [1] was 25 µM and the “HIF activity (HRE-MLuc reporter), result in words” value (“HIF activity (HRE-MLuc reporter)” for short) [1] was “stabilized HIF and transactivated the HRE-driven MLuc reporter”. The pIC50 (SKN:HRE-MLuc cells) was under 4.00 and the “HIF transactivation (HRE-MLuc reporter), result in words” value (shortened to “HIF transactivation (HRE-MLuc reporter)”) [2] was “did not elicit any HIF transactivation”.
For `COC(=O)[C@H](Cc1c[nH]c2ccccc12)NC(=O)c1ccc(C)o1` [Compound 9, (S)-Methyl (5-methylfuran-2-carbonyl)tryptophanate], the “HIF-1α mRNA level, result in words” value [3] was “slightly suppressed by DMOG treatment but not by treatment with compound 9”, the activation at 100 µM [1] was 22% and the minimal effective concentration [1] was 25 µM. The “CA9 mRNA expression, result in words” value [4] was “significantly elevated” and the pIC50 (SKN:HRE-MLuc cells) was under 4.00.
In the case of `COC(=O)CNC(=O)c1cc(-c2ccccc2)cs1` [Compound 26, Methyl (4-phenylthiophene-2-carbonyl)glycinate], the melting point was 93 to 96 °C, the activation at 100 µM [1] was 0% and the pIC50 (SKN:HRE-MLuc cells) was under 4.00.
For `CCOC(=O)[C@H](Cc1ccccc1)NC(=O)c1cc(-c2ccccc2)cs1` [Compound 27, (S)-Ethyl (4-phenylthiophene-2-carbonyl)phenylalaninate], the melting point was 94 to 96 °C, the activation at 100 µM [1] was 2% and the pIC50 (SKN:HRE-MLuc cells) was under 4.00.
Molecule `COC(=O)[C@H](Cc1c[nH]c2ccccc12)NC(=O)c1cc(-c2ccccc2)cs1` [Compound 28, (S)-Methyl (4-phenylthiophene-2-carbonyl)tryptophanate] has a melting point of 150 to 152 °C, an activation at 100 µM [1] of 0% and a minimal effective concentration [1] of 25 µM. The “HIF activity (HRE-MLuc reporter)” value [1] was “stabilized HIF and transactivated the HRE-driven MLuc reporter”, the pIC50 (SKN:HRE-MLuc cells) was under 4.00 and the “HIF transactivation (HRE-MLuc reporter)” value [2] was “did not elicit any HIF transactivation”.
With `COC(=O)[C@@H](Cc1c[nH]c2ccccc12)NC(=O)c1cc(-c2ccccc2)cs1` [Compound 29, (R)-Methyl (4-phenylthiophene-2-carbonyl)tryptophanate] the melting point was 145 to 149 °C, the activation at 100 µM [1] was 0% and the pIC50 (SKN:HRE-MLuc cells) was under 4.00.
In the case of `COC(=O)[C@H](Cc1ccc(O)cc1)NC(=O)c1cc(-c2ccccc2)cs1` [Compound 30, (S)-Methyl (4-phenylthiophene-2-carbonyl)tyrosinate], the melting point was 176 to 178 °C, the activation at 100 µM [1] was 0% and the minimal effective concentration [1] was 6.3 µM. The “HIF activity (HRE-MLuc reporter)” value [1] was “stabilized HIF and transactivated the HRE-driven MLuc reporter”, the “Cellular toxicity in the MTS assays, result in words” value (SKN:HRE-MLuc cells) was “showed cellular toxicity” and the pIC50 (SKN:HRE-MLuc cells) was 4.12. The “HIF transactivation (HRE-MLuc reporter)” value [2] was “did not elicit any HIF transactivation”.
For `COC(=O)CNC(=O)c1ccc(-c2ccc(-c3ccccc3)cc2)s1` [Compound 31, Methyl (5-((1,1′-biphenyl)-4-yl)thiophene-2-carbonyl)glycinate], the melting point was 183 to 185 °C, the activation at 100 µM [1] was 0% and the pIC50 (SKN:HRE-MLuc cells) was under 4.00.
For `COC(=O)[C@H](Cc1c[nH]c2ccccc12)NC(=O)c1cc2ccccc2o1` [Compound 38, (S)-Methyl (benzofuran-2-carbonyl)tryptophanate], the activation at 100 µM [1] was 25%, the minimal effective concentration [1] was 25 µM and the “HIF activity (HRE-MLuc reporter)” value [1] was “stabilized HIF and transactivated the HRE-driven MLuc reporter”. The pIC50 (SKN:HRE-MLuc cells) was under 4.00 and the “HIF transactivation (HRE-MLuc reporter)” value [2] was “did not elicit any HIF transactivation”.
In the case of `COC(=O)CNC(=O)C(=O)OC` [DMOG, dimethyloxalyl glycine, reference compound], the “HIF stabilization activity (HRE-MLuc reporter), result in words” value [5] was “higher HIF stabilization activity” and the “HIF-1α mRNA level, result in words” value [3] was “slightly suppressed”.
For `Cc1nc(C(=O)NCC(=O)O)c(O)c2ccc(Oc3ccccc3)cc12` [FG4592, reference compound], the “HIF activity (HRE-MLuc reporter)” value [1] was “only slightly stabilized HIF” and the “HIF transactivation (HRE-MLuc reporter)” value [2] was “stabilized HIF compared with vehicle-treated cells; also recorded: showed significant HRE reporter activity”.
